Results published in US20120010178A1, “METHODS AND COMPOUNDS FOR TREATMENT OF NEURODEGENERATIVE DISORDERS” (PRESIDENT AND FELLOWS OF HARVARD COLLEGE, priority 2008, published 2012).
Entries after “also recorded” stand apart in the source; their conditions may differ.

How the values were obtained:
[1] = tested on: ES-cell derived Motor Neurons with SMN knockdown; assay: Motor neuron survival assay after SMN knockdown (shRNA lentivirus); assay type: cell-based, mouse; settings: for surviving motor neurons compared to DMSO: 1.25 and 2.5 uM
From the text: To test for survival, motor neurons were infected with three lentiviral constructs acquired from Open Biosystems (pGIPZ): a non-silencing (NS) shRNA and two with unique shRNA sequences directed against the Smn transcript. […] Quantification of SMN knockdown were made in 3T3 cells (FIGS. 39a-39b) and in motor neurons by sorting ES cell derived motor neurons (cherry positive) infected with the pGIPZ lentiviruses (GFP positive cells) by FACS and quantifying the amount of SMN by Western blot.
Effect of reduced SMN levels on motor neuron survival was investigated next. Motor neurons were plated and infected with the various lentiviral constructs. […] To test the effects of SMN increasing compounds, we added them to motor neurons two days after lentiviral infection. Over the course of the subsequent three days, we counted live cherry expressing motor neurons on a daily basis.
Mouse ES-cells expressing cherry fluorescent protein (CFP) under control of a Hb9 promoter, a motor neuron specific transcription factor, were used to differentiate motor neurons as described in Example 31. Motor neurons were infected with the three constructs that were acquired from Open Biosystems (pGIPZ): a non-silencing (NS) shRNA and two constructs with unique shRNA sequences directed against the Smn transcript. […] First we performed motor neuron survival assays to test whether reduced levels of SMN will affect viability of these motor neurons. We differentiated mES cells with Hb9-Chemy Fluorescent Protein (Hb9-CFP) in to motor neurons expressing CFP, that later we dissociated and plated on DIV0. Cells were infected with the NS pGIPZ virus, SMN#1 pGIPZ virus, SMN#2 pGIPZ virus or no virus on DIV 1. The percentage of surviving motor neuron was normalized to the uninfected control culture. […] The percentage of surviving motor neuron was normalized to the culture infected with control non-targeting shRNA.

SMN [2] = assay: SMN levels in human motor neurons derived from patient iPS cells; assay type: cell-based; settings: two days after treatment
Method: GFP expressing motor neurons were derived from an […] patient iPS cells as described below. After growing for approximately 1 week, motor neurons were treated with allsterpaullone. Two days after treatment with allsterpaullone, cells were fixed and stained with SMN antibody or GFP antibody. […] Induced pluripotent stem cells were generated from an SMA patient fibroblast line from Coriell (GM09677) and differentiated into motor neurons according to methods adapted from Dimos, J. T., et. al. Science (2008) 321, 1218-122, Epub Jul. 31, 2008).

PC12 cells = settings: cited from earlier work
SMN [3] = assay: High-content fibroblast screen for compounds that modulate SMN level; settings: human fibroblasts, 2-3 days with compound;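 further: Anti-SMN immunostaining with confocal imaging of nuclear and cytoplasmic SMN and gem counts, tested at 0.1, 1 and 10 uM, fold change relative to negative control wells on each plate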
[4] = tested on: kinase phosphorylation sites (Akt, RSK1, p38, GSKa/b, Erk1/2); assay: Phospho-kinase antibody array of PDGF treated fibroblasts; assay type: cell-based, human; settings: 50 ng/ml, 30 min
Method: Although there is much more known about growth factor specificity and downstream pathways that they activate, whether PDGF effect on SMN was mediated through the binding to the PDGFR was tested next. The SMN-increasing effects of PDGF were blocked by DMPQ and […], two small molecules inhibitors of the PDGF receptor (FIG. 21a). In addition PDGF neutralizing antibody titration were performed in the cells incubated with 20 ng/ml platelet-derived PDGF. Depending on the antibody concentration, gradient of SMN level decrease reaching 40% was observed (FIG. 21b). Moreover, as might be predicted, since there are appreciable levels of PDGF in the media serum in which the fibroblasts are normally maintained, simply adding PDGFR inhibitors DMPQ and AG-1296 to the media decreases the “basal” level of SMN in these cells down to 15-20%, (FIG. 22). Same effect was reproduced by adding PDGF neutralizing antibody to the media, confirming that PDGF can be a physiologically relevant regulator of SMN levels (FIG. 21c). […]
Cellular lysates from fibroblasts GM09677 treated with 50 ng/ml of PDGF-BB for 30 minutes and untreated control fibroblasts were collected and hybridized with the phosphor-kinase array membranes accordingly to the manufacture protocol (R&D Systems). […] Levels of phosphorylated protein were detected by measurement on the X-ray film (Kodak).

motor neurons = assay: Motor neuron survival (mouse motor neurons, compound treatment); assay type: cell-based
Method: Mouse motor neurons were treated with […] inhibitors. The levels of both cytoplasmic and nuclear SMN were detected and quantified using the method described in Example 2. The results shown in FIG. 14b indicate that […] inhibitors increase motor neuron survival.
Another way of assessing motor neuron survival is by withdrawing the neurotrophic factors from the media. Briefly, motor neurons are grown in media containing neurotrophic factors. The neurotrophic factors are then withdrawn from the growth media, e.g., cells transferred to media having no neurotrophic factors or neurotrophic factor containing media exchanged with neurotrophic factors lacking media. The compound of interest is added and motor neurons are counted on a daily basis.

Compound | survival of motor neurons after SMN knockdown (in words) ([1]; 1.25, 2.5 or 5 uM) | surviving motor neurons compared to DMSO ([1]; by the second day) | surviving motor neurons compared to DMSO ([1]; by the third day) | SMN levels in human iPS derived motor neurons (in words) (SMN [2]) | protection from EGTA induced death (PC12 cells) | SMN level in fibroblast screen (increase or decrease) (SMN [3]) | effect on Erk1 and 2 kinase phosphorylation [4] | kinases phosphorylated upon stimulation [4] | motor neuron survival (in words) (motor neurons)
O=C1Cc2c([nH]c3ccc([N+](=O)[O-])cc23)-c2ccccc2N1 [Alsterpaullone] | able to rescue the survival; also recorded: rescues the survival of SMN-KD Motor Neurons up to control level | twice the amount of surviving cells | three fold difference | Increased SMN levels | able to protect PC12 cells from EGTA induced death | SMN is increase |  |  | 
PDGF |  |  |  |  |  |  | little effect | phosphorylation of Akt, RSK1, p38 and GSKa/b | no effect
